Test results from ChEMBL document CHEMBL1932997, “Identification of oxazolidinediones and thiazolidinediones as potent 17β-hydroxysteroid dehydrogenase type 3 inhibitors” (Bioorg Med Chem Lett, 2012).
Blank lines part the entries; values can stand above or below the compound they belong to. Calls of active or inactive are those of the source. The calls are words filed in the database; no cut-off is given here.

How the values were obtained:
[1] = target: T1, 17-beta-hydroxysteroid dehydrogenase type 3 (Homo sapiens, UniProt P37058); assay: Inhibition of human 17beta-HSD3 expressed in HeLa cells assessed as conversion of 4-androstene-3,17-dione to testosterone; assay type: cell-based
T1 sequence (P37058 whole entry): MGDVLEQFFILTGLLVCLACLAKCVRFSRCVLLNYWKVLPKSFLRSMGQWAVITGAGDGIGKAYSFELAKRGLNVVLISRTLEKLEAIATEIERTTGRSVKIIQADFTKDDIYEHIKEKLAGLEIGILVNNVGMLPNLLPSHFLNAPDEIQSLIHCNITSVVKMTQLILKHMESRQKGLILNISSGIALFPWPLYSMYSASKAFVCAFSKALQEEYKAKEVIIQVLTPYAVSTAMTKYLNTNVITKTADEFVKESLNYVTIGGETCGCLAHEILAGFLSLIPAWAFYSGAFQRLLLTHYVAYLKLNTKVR

[2] = target: T1, 17-beta-hydroxysteroid dehydrogenase type 3; assay: Inhibition of 17beta-HSD3 in human testes homogenate; assay type: tissue-based, Testis
[3] = target: T2, 17-beta-hydroxysteroid dehydrogenase type 3 (Mus musculus, UniProt P70385); assay: Inhibition of 17beta-HSD3 in mouse testes homogenate; assay type: tissue-based, Testis
T2 sequence (P70385 whole entry): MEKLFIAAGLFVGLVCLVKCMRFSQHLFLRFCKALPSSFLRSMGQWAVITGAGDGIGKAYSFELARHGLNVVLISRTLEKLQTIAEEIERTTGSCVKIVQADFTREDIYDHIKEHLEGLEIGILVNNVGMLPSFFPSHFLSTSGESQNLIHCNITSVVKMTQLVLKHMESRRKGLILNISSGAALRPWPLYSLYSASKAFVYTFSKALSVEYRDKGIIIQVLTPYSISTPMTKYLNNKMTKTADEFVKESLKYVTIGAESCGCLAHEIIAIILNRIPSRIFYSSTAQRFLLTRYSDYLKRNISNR

[4] = Inhibition of 17beta-HSD3 in marmoset testes homogenate; assay type: tissue-based, Callitrichinae sp., Testis
[5] = target: T3, 17-beta-hydroxysteroid dehydrogenase type 1 (Homo sapiens) (UniProt P14061); assay: Inhibition of 17beta-HSD1 expressed in HeLa cells assessed as conversion of estrone into estradiol; assay type: cell-based
T3 sequence (whole entry): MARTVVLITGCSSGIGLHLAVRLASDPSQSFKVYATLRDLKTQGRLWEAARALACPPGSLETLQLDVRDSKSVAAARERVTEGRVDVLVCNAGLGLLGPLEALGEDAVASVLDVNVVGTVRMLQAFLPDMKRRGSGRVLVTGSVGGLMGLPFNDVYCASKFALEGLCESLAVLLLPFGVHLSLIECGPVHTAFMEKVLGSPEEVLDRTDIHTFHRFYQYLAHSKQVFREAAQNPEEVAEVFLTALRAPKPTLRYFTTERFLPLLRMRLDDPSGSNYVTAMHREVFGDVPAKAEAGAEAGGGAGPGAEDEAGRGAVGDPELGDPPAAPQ

[6] = target: T4, 17-beta-hydroxysteroid dehydrogenase type 2 (Homo sapiens) (UniProt P37059); assay: Inhibition of 17beta-HSD2 expressed in HeLa cells assessed as conversion of estrone into estradiol; assay type: cell-based
T4 sequence (whole entry): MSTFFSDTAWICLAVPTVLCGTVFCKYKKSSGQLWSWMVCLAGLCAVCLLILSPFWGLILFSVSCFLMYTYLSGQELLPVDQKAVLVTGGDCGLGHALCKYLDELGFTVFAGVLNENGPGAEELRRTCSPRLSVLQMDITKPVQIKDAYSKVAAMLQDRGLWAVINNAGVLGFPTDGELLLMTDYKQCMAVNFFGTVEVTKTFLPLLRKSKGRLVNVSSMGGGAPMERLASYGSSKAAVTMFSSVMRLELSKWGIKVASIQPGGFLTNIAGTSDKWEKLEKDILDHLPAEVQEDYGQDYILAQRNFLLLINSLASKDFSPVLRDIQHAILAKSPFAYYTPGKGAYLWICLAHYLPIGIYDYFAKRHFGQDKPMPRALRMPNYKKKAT

[7] = target: T5, Androgen receptor (Homo sapiens) (UniProt P10275); assay: Agonist activity at androgen receptor by transcriptional reporter gene assay; assay type: functional
T5 sequence (whole entry): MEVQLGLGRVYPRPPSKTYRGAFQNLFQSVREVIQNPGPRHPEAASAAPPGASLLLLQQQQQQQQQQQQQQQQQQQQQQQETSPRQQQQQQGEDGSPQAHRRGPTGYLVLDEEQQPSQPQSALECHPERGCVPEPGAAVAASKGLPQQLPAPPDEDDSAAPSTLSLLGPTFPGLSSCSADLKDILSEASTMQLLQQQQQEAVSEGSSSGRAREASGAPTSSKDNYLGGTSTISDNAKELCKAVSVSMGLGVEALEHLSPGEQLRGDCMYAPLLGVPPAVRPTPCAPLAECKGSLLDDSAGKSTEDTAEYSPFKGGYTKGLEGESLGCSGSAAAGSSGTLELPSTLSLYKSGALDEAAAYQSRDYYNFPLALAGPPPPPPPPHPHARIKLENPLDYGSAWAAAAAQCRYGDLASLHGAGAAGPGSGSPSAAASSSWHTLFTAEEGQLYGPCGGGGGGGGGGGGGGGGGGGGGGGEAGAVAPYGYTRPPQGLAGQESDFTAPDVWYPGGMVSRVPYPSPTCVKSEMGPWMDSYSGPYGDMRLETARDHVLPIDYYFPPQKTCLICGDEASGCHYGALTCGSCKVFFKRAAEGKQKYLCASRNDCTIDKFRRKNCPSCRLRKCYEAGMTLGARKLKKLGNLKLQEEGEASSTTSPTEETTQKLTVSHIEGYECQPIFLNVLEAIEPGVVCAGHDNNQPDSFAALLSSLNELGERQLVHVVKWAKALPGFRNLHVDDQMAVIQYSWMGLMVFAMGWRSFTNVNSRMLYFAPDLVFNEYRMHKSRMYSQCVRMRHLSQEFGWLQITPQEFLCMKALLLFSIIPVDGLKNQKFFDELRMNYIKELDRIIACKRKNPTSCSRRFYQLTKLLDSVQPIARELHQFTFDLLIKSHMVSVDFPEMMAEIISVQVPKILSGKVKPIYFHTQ

[8] = target: T5, Androgen receptor (Homo sapiens); assay: Antagonist activity at androgen receptor by transcriptional reporter gene assay; assay type: functional
[9] = target: T6, Estrogen receptor (Homo sapiens) (UniProt P03372); assay: Agonist activity at ERalpha by transcriptional reporter gene assay; assay type: functional
T6 sequence (whole entry): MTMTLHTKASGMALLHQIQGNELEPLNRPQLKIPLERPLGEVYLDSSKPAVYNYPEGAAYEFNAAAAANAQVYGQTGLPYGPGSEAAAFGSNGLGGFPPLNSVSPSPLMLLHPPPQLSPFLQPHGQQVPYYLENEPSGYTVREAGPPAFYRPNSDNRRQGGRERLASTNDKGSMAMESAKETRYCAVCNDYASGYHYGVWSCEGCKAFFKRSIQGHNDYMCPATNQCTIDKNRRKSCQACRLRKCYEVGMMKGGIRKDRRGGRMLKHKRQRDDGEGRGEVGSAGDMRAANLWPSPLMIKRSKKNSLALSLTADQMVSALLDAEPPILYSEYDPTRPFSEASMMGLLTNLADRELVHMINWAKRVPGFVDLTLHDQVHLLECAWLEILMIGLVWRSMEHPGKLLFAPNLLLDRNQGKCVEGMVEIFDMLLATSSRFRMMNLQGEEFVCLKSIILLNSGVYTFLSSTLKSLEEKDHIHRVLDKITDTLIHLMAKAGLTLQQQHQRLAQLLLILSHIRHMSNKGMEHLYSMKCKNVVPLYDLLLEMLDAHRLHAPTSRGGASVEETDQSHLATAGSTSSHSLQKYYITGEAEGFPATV

[10] = target: T6, Estrogen receptor (Homo sapiens); assay: Antagonist activity at ERalpha by transcriptional reporter gene assay; assay type: functional
[11] = target: T7, Glucocorticoid receptor (Homo sapiens) (UniProt P04150); assay: Agonist activity at glucocorticoid receptor by transcriptional reporter gene assay; assay type: functional
T7 sequence (whole entry): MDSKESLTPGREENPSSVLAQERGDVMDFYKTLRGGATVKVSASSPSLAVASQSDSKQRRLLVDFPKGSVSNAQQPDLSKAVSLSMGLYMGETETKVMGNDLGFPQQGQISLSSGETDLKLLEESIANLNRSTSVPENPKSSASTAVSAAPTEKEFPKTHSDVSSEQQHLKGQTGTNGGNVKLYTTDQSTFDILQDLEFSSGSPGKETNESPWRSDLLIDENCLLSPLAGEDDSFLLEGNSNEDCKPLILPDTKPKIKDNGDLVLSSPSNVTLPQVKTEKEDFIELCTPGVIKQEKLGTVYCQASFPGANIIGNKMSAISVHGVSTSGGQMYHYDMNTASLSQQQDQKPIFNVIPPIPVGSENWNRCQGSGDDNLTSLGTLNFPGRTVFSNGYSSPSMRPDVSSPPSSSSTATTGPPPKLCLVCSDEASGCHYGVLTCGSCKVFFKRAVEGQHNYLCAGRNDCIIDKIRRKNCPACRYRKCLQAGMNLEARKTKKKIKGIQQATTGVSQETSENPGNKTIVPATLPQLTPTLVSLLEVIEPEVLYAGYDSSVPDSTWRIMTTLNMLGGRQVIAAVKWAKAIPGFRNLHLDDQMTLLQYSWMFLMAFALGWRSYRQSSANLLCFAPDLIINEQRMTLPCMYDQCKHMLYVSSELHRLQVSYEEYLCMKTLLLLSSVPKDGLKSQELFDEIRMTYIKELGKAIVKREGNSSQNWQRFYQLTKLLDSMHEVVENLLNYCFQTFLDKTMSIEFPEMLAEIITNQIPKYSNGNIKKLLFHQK

[12] = target: T7, Glucocorticoid receptor (Homo sapiens); assay: Antagonist activity at glucocorticoid receptor by transcriptional reporter gene assay; assay type: functional
[13] = target: T8, 17-beta-hydroxysteroid dehydrogenase type 3 (Homo sapiens) (UniProt P37058); conditions: HeLa, 10 uM
T8 sequence (whole entry): T1 sequence (P37058 whole entry)
Description: Inhibition of human 17beta-HSD3 activity expressed in HeLa cells assessed as conversion of 4-androstene-3,17-dione to testosterone at 10 uM

Compound: COc1ccc(-n2cnn(Cc3ccc(O)c(Br)c3)c2=O)cc1
IC50 ([1]; read-out: IC50): 5700 nM

Compound: COc1ccc(N2C(=O)/C(=C/c3ccc(O)c(Br)c3)N(C)C2=O)cc1
IC50 ([1]; hela): Not Active

Compound: COc1ccc(N2C/C(=C/c3ccc(O)c(Br)c3)OC2=O)cc1
IC50 ([1]; read-out: IC50): 670 nM

Compound: COc1ccc(N2C(=O)N/C(=C\c3ccc(O)c(Br)c3)C2=O)cc1
IC50 ([1]; hela): Not Active

Results, then the compound that gave them:

IC50 ([1]; read-out: IC50): 23 nM
Compound: COc1ccc(N2C(=O)O/C(=C\c3ccc(O)c(Br)c3)C2=O)cc1

IC50 ([1]; read-out: IC50): 90 nM
Compound: COc1ccc(N2C(=O)S/C(=C\c3ccc(O)c(Br)c3)C2=O)cc1

IC50 ([1]; read-out: IC50): 14 nM | IC50 [2]: 6 nM | IC50 [3]: 40 nM | IC50 [4]: 0.6 nM | inhibition [5]: inactive | inhibition [6]: inactive | Activity [7]: inactive | Activity [8]: inactive | Activity [9]: inactive | Activity [10]: inactive | Activity [11]: inactive | Activity [12]: inactive | inhibition [13]: 23%
Compound: COc1ccc(N2C(=O)/C(=C/c3ccc(O)c(Br)c3)SC2=S)cc1

IC50 ([1]; read-out: IC50): 13 nM
Compound: COc1ccc(N2C(=O)/C(=C/c3ccc(O)c(Br)c3)OC2=S)cc1

IC50 ([1]; read-out: IC50): 300 nM
Compound: COc1ccc(N2C(=O)OC(Cc3ccc(O)c(Br)c3)C2=O)cc1 (configuration not stated)

IC50 ([1]; read-out: IC50): 570 nM
Compound: COc1ccc(-n2cc(Cc3ccc(O)c(Br)c3)sc2=O)cc1
